Tests used:
[1] = system: Mouse preosteoblast cell line (MC3T3-E1); experiment: Alkaline phosphatase (ALP) activity of MC3T3-E1 on hydrogels; type: cell-based; settings: 1% FHR hydrogel; FIGS. 14-16A/B compared to FIGS. 3-4
Method: Mouse preosteoblast cell line (MC3T3-E1) was used to compare the proliferation and differentiation effects of the motifs with RAD16-1 and Collagen-I hydrogels as controls. The proliferation was measured by DNA contents and the differentiation effects were evaluated using Alkaline phosphatase (ALP) activity and secreted Osteocalcin. Alkaline phosphatase is known to be differentiation marker of osteoblast in earlier stage. Secreted Osteocalcin is known to be differentiation marker of osteoblast in later stage and its activity is correlated with the bone mineralization.
1% RAD16-I solution [self-assembling peptide solution] was obtained as RAD16-I (Puramatrix™, 3DM Inc./BD Bioscience). The functionalized peptides of Table 2 were dissolved in water at final concentration of 1% (v/w). The functionalized peptide solutions were then mixed with 1% RAD16-I solution at a ratio of 1:1 (Table 4). Each peptide solution was loaded in the Culture plate inserts (10 mm diameter, Millicell-CM, Millipore). […]
Cell proliferation was evaluated using DNA contents in the hydrogel using PicoGreen dsDNA Kits (Molecular Probes). ALP activity was quantitatively measured from cell lysis using Alkaline Phosphatase Fluorescence Assay Kit (Sigma). Osteocalcin was measured from cell culture medium using Mouse Osteocalcin EIA Kit (Biomedical Technologies Inc.).

MC3T3-E1 cells = experiment: Three dimensional culturing of MC3T3-E1 in hydrogel (Calcein AM, confocal); type: cell-based, mouse; settings: 14 days of culture; compared to RAD16-1; FIGS. 13A-13D
Method: Three dimensional culturing experiment. MC3T3-E1 cells were obtained and grown to be seeded using the same protocol as described in Example 1. Cells were centrifuged and re-suspended into sucrose solution (10%) at 4×10^6 cells/ml. FHR peptide was dissolved into water to provide a 1.0% w/t solution. 1% RAD16-I solution was obtained as RAD16-I (Puramatrix™, 3DM Inc./BD Bioscience). The pH of the FHR peptide solution was adjusted to pH 5.7 by NaOH solution (i.e., so that cells can be mixed near neutral pH). The cell suspension and the peptide solution (FHR/RAD16-I) were mixed in a ratio of 1:5. The mixed solution were placed in the inserts and the cell culture medium was added to the insert to form the hydrogel. The cells were maintained by the maintenance medium (as described herein).
Fluorescence observation of the cells. After 14 days of culture, the inserts were washed by PBS and then stained by Calcein AM solution (4 uM, Invitrogen). This solution stains the live cells by the green fluorescence when excited by 480 nm light.
The RAD16-1 and FHR hydrogels in the insert was observed by confocal microscope. […] The bright areas show the cells presence. […] The quantitative measurement of proliferation and differentiation effects by the FHR peptide hydrogel were also evaluated (FIGS. 14-16A/B). […]

[2] = system: adipose derived stem cells (ADSC); experiment: ADSC culture in functionalized peptide matrixes: cell migration; type: cell-based, human
Method: 3-dimensional adipose derived stem cells (ADSC) were cultured in the functionalized peptide matrixes (Table 24) and cell maintenance ability of functionalized self-assembling peptide matrixes was evaluated. ADSCs were suspended in 10% sucrose solution and mixed with peptide solution selected from Table 25. The cell suspended peptide solutions were transferred to the culture inserts (10 mm diameter, Millicell-CM, Millipore) and gels were immediately formed using cell culture medium. Cell numbers seeded in the well were 4×10^4 cells/well.
The peptide solutions shown in Table 25 were loaded in the culture inserts (10 mm diameter, Millicell-CM, Millipore) and gels were formed using cell culture medium (DMEM-F12+10% FBS, Gibco). ADSC were plated at 4×10^4 cells on the inserts and cultured up to 7 Days.
Although the cells were seeded on the surface of the matrix, the cells were migrated well into the matrix.

Substance	promotion of pre-osteoblast differentiation [1]	3-Dimensional cell proliferation (MC3T3-E1 cells)	migration depth of cells ([2]; 7 days of culturing, FIG. 34)	portion of the cell migrated into the hydrogels ([2]; 7 days, compared to PRGmx)
Ac(RADA)4GGFHRRIKA-CONH2 (Ac-RADARADARADARADAGGFHRRIKA-NH2) [FHR = 1% solution; FHR-2P = 2% solution]	some function to promote differentiation	superior		
Ac(RADA)4-CONH2			migrated less deeper than PRGmx	larger
